# Laboratory results published in patent US20260209301A1, “Galanin-2 Receptor Agonists” (LIFEARC, priority 2022, published 2026).
# How the values were obtained:
# [1] = system: mouse chemotherapy-induced model of neuropathic pain; experiment: Oxaliplatin chemotherapy-induced neuropathic pain model, von Frey; assay type: in vivo; conditions: 0.1, 1 and 3 mg/kg i.p.; 4 hours post dose (day 5 after Oxaliplatin)
# Procedure: Oxaliplatin-induced hypersensitivity: A single dose of Oxaliplatin was injected intraperitoneally (i.p.) at 10 mg/kg at a volume of 10 ml/kg. Oxaliplatin was dissolved in 5% dextrose to 1 mg/ml before use. Animals were injected in the same order in which they were tested.
# Static mechanical tactile allodynia: Static mechanical (tactile) allodynia was assessed by measurement of withdrawal threshold using calibrated (force; g) von-Frey monofilaments (Touch-Test Sensory Evaluator; Scientific Marketing Associates) applied to the plantar surface of the hind paw. Animals were placed in individual Perspex boxes on a raised metal mesh for 30-40 min before the test. A series of graduated von Frey hairs (0.07, 0.16, 0.4, 0.6 and 1 g) was applied in sequence with a protocol of 1 sec on 1 sec off repeated 10 times. […] The force applied to the hind-paw of the animal to induce 5 responses out of 10 trials was recorded as paw withdrawal threshold (PWT).
# Baseline PWT was assessed on three consecutive days (Day-3, Day-2 and Day-1). […]
# Mechanical allodynia was re-assessed on Day 3 and 4 post-administration of a single dose of Oxaliplatin to monitor the development of allodynia. […]
# Mechanical allodynia was re-assessed on Day 5 (4 hours post dose) and thereafter determined on Days 6 and 7 after administration of Oxaliplatin (i.e. 24 hours and 48 hours post FC2-13 treatment). […]
# [2] = system: mouse CFA model of inflammatory pain; experiment: CFA-induced inflammatory pain model, weight bearing; assay type: in vivo
# From the text: Intraplantar injection of Complete Freunds adjuvant (CFA) causes an inflammatory reaction which induces hypersensitivity and oedema and mimics some aspects of clinical inflammatory pain. These effects can be investigated using equipment to measure the […]. Naive mice distribute their body weight equally between the two hind paws. When the injected hind paw is inflamed and/or painful, the weight is re-distributed so that less weight is put on the affected paw (decrease in weight bearing on injured paw). Weight bearing through each hind limb is measured using an incapacitance tester (Linton Instruments, UK).
# Environmental conditions: Animals were housed in standard caging and laboratory conditions in groups of 2-5, with free access to food (5CR4, Purina) and water (except during placement in the incapacitance box) on a 12/12 light/dark cycle. […] Weight bearing: Mice were placed in the incapacitance tester with the hind paws on separate sensors and the average force exerted by both hind limbs was recorded over 2 seconds. […] Prior to test compound treatment, weight bearing readings were taken to assess baseline hypersensitivity 23 hours post-CFA. […] Weight bearing was then assessed at 4, 24, 48 and 72 hours post-test compound treatment.
# Weight bearing (g) readings were taken for both right and left hind paws and the difference calculated. […]
# [3] = biological target: T1, GALR3 (Homo sapiens, UniProt O60755); experiment: Luciferase reporter gene assay (SRE), HEK293 Gqi cells; assay type: cell-based
# T1 construct: expressed in transfected cells; host or cells: genetically modified HEK293 Gqi cells, transient
# T1 sequence (O60755 1-368): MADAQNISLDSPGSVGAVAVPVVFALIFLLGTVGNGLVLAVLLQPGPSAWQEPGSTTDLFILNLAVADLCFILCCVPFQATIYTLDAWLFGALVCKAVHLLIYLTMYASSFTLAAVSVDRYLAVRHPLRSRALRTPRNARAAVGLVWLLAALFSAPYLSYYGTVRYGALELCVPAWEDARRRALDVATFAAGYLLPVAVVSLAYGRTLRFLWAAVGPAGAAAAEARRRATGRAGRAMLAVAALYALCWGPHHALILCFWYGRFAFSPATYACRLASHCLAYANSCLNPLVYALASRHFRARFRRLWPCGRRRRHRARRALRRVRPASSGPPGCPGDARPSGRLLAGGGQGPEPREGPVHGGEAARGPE
# Procedure: GalR3 activity was measured, alongside GalR1 and GalR2, using a luciferase reporter assay. A reporter plasmid and a receptor plasmid, were transiently transfected into the target cell line. The reporter plasmid contains a serum response element (SRE) or a nuclear factor of activated T-cells response element (NFAT-RE) which is coupled to a luciferase transcript and induces expression of the luciferase upon a specific G-protein (Gai uses SRE; Gaq uses NFAT-RE) activation. The target receptor is constantly expressed after cell transfection. For GALR1 and GALR3 screening, genetically modified HEK293 Gqi cells were transiently transfected with the SRE reporter and the receptor (GALR1 and GALR3) plasmids. For GALR2 screening, HEK293 cells were transiently transfected with the NFAT-RE reporter and the receptor (GALR2) plasmid. […] The luciferase activity was analyzed with the Bright-Glo Luciferase Assay (Promega) in an EnSpire plate reader.
# Therefore, to measure activity at the GalR3 receptor a reporter gene assay was used. In this system MAP/ERK signalling is used to measure receptor activity. Activation of Gqi coupled receptors leads to downstream activation of ERK1/2. The activated ERK translocates to the nucleus where it phosphorylates and activates transcription factors, which lead to the binding of Serum response element (SRE). In this assay SRE activation induces expression of a luciferase reporter gene. […] To ensure this effect was not an artifact of the reporter gene assay, GalR1 and GalR2 reporter assays (using SRE and NFAT-RE respectively) were also run.
# [4] = biological target: T2, rat GalR2 (Rattus norvegicus, UniProt O08726); experiment: Calcium assay at orthologue receptor; assay type: cell-based; conditions: Table 8; Calcium assays; mean +/− standard deviation
# T2 sequence (O08726 1-372): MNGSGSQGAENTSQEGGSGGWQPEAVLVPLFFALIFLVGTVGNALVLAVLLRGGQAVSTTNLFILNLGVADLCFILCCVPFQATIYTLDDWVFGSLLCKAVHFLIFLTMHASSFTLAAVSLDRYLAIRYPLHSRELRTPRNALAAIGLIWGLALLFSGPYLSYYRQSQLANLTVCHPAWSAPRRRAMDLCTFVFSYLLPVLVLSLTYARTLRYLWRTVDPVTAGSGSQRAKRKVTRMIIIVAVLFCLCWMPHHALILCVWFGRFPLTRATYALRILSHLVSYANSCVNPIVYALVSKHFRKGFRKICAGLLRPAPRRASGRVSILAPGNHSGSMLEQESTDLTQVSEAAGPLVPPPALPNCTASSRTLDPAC
# From the text: These species were chosen as they represent potential downstream in vivo models to be used. […] Calcium imaging was used to define receptor activity.
Substance,reversal of Oxaliplatin-induced mechanical hyperalgesia [1],"MED, reversal of hyperalgesia induced by CFA [2] [mg/kg i.p.]",duration of reversal of hyperalgesia induced by CFA [2] [h],activity at GalR3 (in words) [3],Rat GalR2 activity [4]
"Gal2-13FC: galanin 2-13, AEAAAKEAAAKA linker, human IgG1 FC; SEQ ID NO: 7",efficacious,≤ 1,≥ 72,no measurable activity,6.5 +/− 0.1
"Gal2-30FC: galanin 2-30, AEAAAKEAAAKA linker, human IgG1 FC; SEQ ID NO: 28",–,–,–,no measurable activity,–
